This is an account of results in patent US8226976B2, “Method of using cell-free protein synthesis to produce a membrane protein” (Riken, priority 2007, dated 2012).

For data set [1] the following is noted: in water; cited from earlier work.
Data set [2] relates to cell-free protein synthesis system (S30 extract). As to the kind of experiment: cell-free synthesis of BR by the dialysis method with the cholate concentration kept constant. The class given is biochemical, E. coli. The settings on record: 1% sodium cholate added to internal and external dialysis solutions; FIG. 2, Lanes 3, 4. As to the method: A protein synthesis reaction was performed as follows: an internal solution of the composition as shown in table 1 as mentioned below was supplied with 100 μM all-trans retinal at final concentration (Sigma), 9 μg of synthetic plasmid as necessary, a predetermined concentration of a detergent, and 6 mg of egg yolk phosphatidylcholine (Type XVI-E, Sigma) to prepare a reaction solution, 0.9 ml of which was poured into a dialysis membrane (Spectra/Por 7, Molecular Weight Cut Off: 15000, Spectrum). The synthesis reaction was performed at 30° C. for 6 h during dialysis which was to 10 times volume of external solution (9 mL) in a 15 mL conical tube by rotary shaking with a rotary shaker (RT-50, TAITEC). […]
After termination of the synthesis reaction, the reaction internal solution was centrifuged at 15000 rpm for 10 min. […] Scatter correction was performed by subjecting the determined scores from 680 nm to 750 nm to linear regression to subtract from the measured spectrums. The amount of an active BR was calculated from the score of the spectrum of 560 nm as subjected to the scatter correction using the molar absorption coefficient: 42000 and the molecular weight: 31.4 k. […]

As for `C[C@H](CCC(=O)NCCC[N+](C)(C)CCCS(=O)(=O)[O-])[C@H]1CC[C@H]2[C@@H]3[C@H](O)C[C@@H]4C[C@H](O)CC[C@]4(C)[C@H]3C[C@H](O)[C@]12C` [CHAPS, 3-[(3-cholamidepropyl)dimethylammonio]-1-propanesulfonate], the “critical micelle concentration (cmc)” value in data set [1] is reported as 0.49 % (w/v).
Take `C[C@@H]1CC[C@@]2(OC1)O[C@H]1[C@@H](O)[C@H]3[C@@H]4CC[C@H]5C[C@@H](O[C@@H]6O[C@H](CO)[C@H](O[C@@H]7O[C@H](CO)[C@@H](O)[C@H](O[C@@H]8OC[C@@H](O)[C@H](O)[C@H]8O)[C@H]7O[C@@H]7O[C@H](CO)[C@H](O)[C@H](O[C@@H]8O[C@H](CO)[C@@H](O)[C@H](O)[C@H]8O)[C@H]7O)[C@H](O)[C@H]6O)[C@H](O)C[C@]5(C)[C@H]4CC[C@]3(C)[C@H]1[C@@H]2C` [digitonin]: the “critical micelle concentration (cmc)” value in data set [1] is 0.06 % (w/v).
`C[C@H](CCC(=O)[O-])[C@H]1CC[C@H]2[C@@H]3[C@H](O)C[C@@H]4C[C@H](O)CC[C@]4(C)[C@H]3C[C@H](O)[C@]12C.[Na+]` [sodium cholate]: the “synthesis of BR (effect of inhibiting protein synthesis)” value in data set [2] was “synthesis of BR was not found”. The “critical micelle concentration (cmc)” value in data set [1] is reported as 0.41 % (w/v).
